Test results as given in patent US9409952B2, “Peptide-compound cyclization method” (Chugai Seiyaku Kabushiki Kaisha, priority 2011, dated 2016).
Starred links: 1 amine or outer side, 2 acyl side, 3 side chain; linkers in the order of their positions; H or OH if unused. Positions of bridges follow the written chain, without caps; N, C: chain ends. Non-standard residues stand in square brackets, D forms with d. Residues, ends and D or L forms follow the SMILES beside them. *: point of attachment. NMeF = CN[C@@H](Cc1ccccc1)C(=O)O; NMeβAla = CN(CCC(=O)[*:2])[*:1]; NMeL = CN[C@@H](CC(C)C)C(=O)O; NMeV = CN[C@H](C(=O)O)C(C)C; NMeA = CN[C@@H](C)C(=O)O; Piperidide = C1CCN(*)CC1; dNMeA = CN[C@H](C)C(=O)O; Sar = CNCC(=O)O; tBu = CC(C)(C)*

Assays:
[1] = PAMPA (parallel artificial membrane permeability assay); format: in vitro ADME; details: PAMPA; membrane permeation rate (Pe); 50 mM MOPSO buffer pH 6.5 with 5.0% glycocholic acid, 37° C., 18 hours; read-out: iPAMPA Pe
Method in brief: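 Artificial membrane was 10% (w/v) egg lecithin plus 0.5% (w/v) cholesterol in dodecane on a PVDF filter. A 10 mM DMSO stock was added at 0.5% (v/v) to donor buffer (50 mM MOPSO, pH 6.5, 5.0% glycocholic acid). After 18 h at 37 °C, LC/MS or LC/UV gave donor and acceptor levels for Pe.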

[2] = Metabolic stability in human hepatic microsome; format: in vitro ADME; details: microsomes, pH 7.4; human hepatic microsome, NADPH(+); read-out: CL NADPH(+)

CC[C@H](C)[C@@H]1NC(=O)[C@H](CC(C)C)N(C)C(=O)[C@H](C)NC(=O)CN(C)C(=O)[C@H](Cc2ccccc2)NC(=O)[C@H]([C@@H](C)O)NC(=O)[C@H](CC(C)C)N(C)C(=O)CCN(C)C(=O)C[C@@H](C(=O)N2CCCCC2)NC(=O)[C@H](CC(C)C)N(C)C(=O)[C@H](CC(C)C)N(C)C1=O [DP-413] ([NMeβAla][NMeL]TF[Sar]A[NMeL]I[NMeL][NMeL]D-Piperidide; lactam N-11)
Papp at 18 hours, 50 µM [1]: 29 ×10⁻⁶ cm/s | microsomal CLint at 1 uM [2]: 68 µL/min/mg

CC(C)C[C@H]1C(=O)N(C)[C@@H](Cc2ccccc2)C(=O)N[C@@H]([C@@H](C)O)C(=O)N(C)[C@@H](C)C(=O)N(C)[C@@H](CC(C)C)C(=O)N(C)[C@@H](C)C(=O)N[C@H](C(=O)N2CCCCC2)CC(=O)N(C)CCC(=O)N(C)[C@@H](C)C(=O)N[C@@H](C)C(=O)N(C)[C@@H](C(C)C)C(=O)N1C [DP-414] ([NMeβAla][NMeA]A[NMeV][NMeL][NMeF]T[NMeA][NMeL][NMeA]D-Piperidide; lactam N-11)
Papp at 18 hours, 50 µM [1]: 4.4 ×10⁻⁶ cm/s | microsomal CLint at 1 uM [2]: 20 µL/min/mg

CC[C@H](C)[C@@H]1NC(=O)[C@@H](C)NC(=O)C[C@@H](C(=O)N2CCCCC2)NC(=O)[C@H](Cc2ccccc2)NC(=O)[C@H]([C@@H](C)O)NC(=O)[C@H](C)NC(=O)[C@H](Cc2ccccc2)NC(=O)[C@H](CC(C)C)NC(=O)[C@H](CC(C)C)N(C)C(=O)[C@H](Cc2ccccc2)NC(=O)[C@H](CC(C)C)NC1=O [DP-415] ([dA]ILF[NMeL]LFATFD-Piperidide; lactam N-11)
Papp at 18 hours, 50 µM [1]: 2.9 ×10⁻⁶ cm/s | microsomal CLint at 1 uM [2]: 118 µL/min/mg

CC[C@H](C)[C@@H]1NC(=O)[C@H](CC(C)C)NC(=O)[C@H](C(C)C)NC(=O)[C@H](CC(C)C)N(C)C(=O)[C@H](CC(C)C)NC(=O)[C@H](Cc2ccccc2)NC(=O)[C@H]([C@@H](C)O)NC(=O)[C@H](CC(C)C)NC(=O)[C@H](Cc2ccccc2)NC(=O)[C@@H](C)N(C)C(=O)C[C@@H](C(=O)N2CCCCC2)NC1=O [DP-416] ([dNMeA]FLTFL[NMeL]VLID-Piperidide; lactam N-11)
Papp at 18 hours, 50 µM [1]: 0.23 ×10⁻⁶ cm/s | microsomal CLint at 1 uM [2]: 20 µL/min/mg

CC[C@H](C)[C@@H]1NC(=O)[C@H](C(C)C)N(C)C(=O)[C@H](C)N(C)C(=O)[C@H]([C@@H](C)O)NC(=O)[C@H](CC(C)C)N(C)C(=O)[C@H](Cc2ccccc2)NC(=O)[C@H](CC(C)C)N(C)C(=O)[C@@H](C)N(C)C(=O)C[C@@H](C(=O)N2CCCCC2)NC(=O)[C@H](C)NC(=O)[C@H](CC(C)C)N(C)C1=O [DP-417] ([dNMeA][NMeL]F[NMeL]T[NMeA][NMeV]I[NMeL]AD-Piperidide; lactam N-11)
Papp at 18 hours, 50 µM [1]: 43 ×10⁻⁶ cm/s | microsomal CLint at 1 uM [2]: 113 µL/min/mg

CC(C)C[C@@H]1NC(=O)[C@H](CC(C)C)N(C)C(=O)[C@H](C)NC(=O)[C@H](C(C)C)N(C)C(=O)CN(C)C(=O)[C@H](Cc2ccccc2)NC(=O)[C@H]([C@@H](C)O)NC(=O)[C@H](CC(C)C)N(C)C(=O)[C@@H](C)N(C)C(=O)C[C@@H](C(=O)N2CCCCC2)NC(=O)[C@H](CC(C)C)N(C)C1=O [DP-418] ([dNMeA][NMeL]TF[Sar][NMeV]A[NMeL]L[NMeL]D-Piperidide; lactam N-11)
Papp at 18 hours, 50 µM [1]: 28 ×10⁻⁶ cm/s | microsomal CLint at 1 uM [2]: 71 µL/min/mg

CC(C)C[C@H]1C(=O)N[C@@H]([C@@H](C)O)C(=O)N(C)[C@@H](C)C(=O)N(C)[C@@H](Cc2ccccc2)C(=O)N(C)CC(=O)N[C@@H](C)C(=O)N(C)[C@@H](Cc2ccccc2)C(=O)N(C)[C@@H](CC(C)C)C(=O)N[C@H](C(=O)N2CCCCC2)CC(=O)N(C)[C@H](C)C(=O)N(C)[C@@H](C)C(=O)N1C [DP-419] ([dNMeA][NMeA][NMeL]T[NMeA][NMeF][Sar]A[NMeF][NMeL]D-Piperidide; lactam N-11)
Papp at 18 hours, 50 µM [1]: 6.7 ×10⁻⁶ cm/s | microsomal CLint at 1 uM [2]: 17 µL/min/mg

CC(C)C[C@@H]1NC(=O)CN(C)C(=O)[C@H](CC(C)C)NC(=O)[C@H](C)NC(=O)[C@H](CC(C)C)NC(=O)[C@H](CC(C)C)NC(=O)[C@H](C)N(C)C(=O)C[C@@H](C(=O)N2CCCCC2)NC(=O)[C@H]([C@@H](C)O)NC(=O)[C@H](Cc2ccccc2)NC(=O)[C@H](CC(C)C)NC1=O [DP-420] ([NMeA]LLAL[Sar]LLFTD-Piperidide; lactam N-11)
Papp at 18 hours, 50 µM [1]: 10 ×10⁻⁶ cm/s | microsomal CLint at 1 uM [2]: 69 µL/min/mg

CC(C)C[C@@H]1NC(=O)[C@H](C)NC(=O)[C@H]([C@@H](C)O)NC(=O)[C@H](C)N(C)C(=O)C[C@@H](C(=O)N2CCCCC2)NC(=O)[C@H](CC(C)C)N(C)C(=O)[C@H](CC(C)C)NC(=O)[C@H](C(C)C)N(C)C(=O)[C@H](CC(C)C)NC(=O)[C@H](Cc2ccccc2)NC(=O)CN(C)C1=O [DP-421] ([NMeA]TAL[Sar]FL[NMeV]L[NMeL]D-Piperidide; lactam N-11)
Papp at 18 hours, 50 µM [1]: 29 ×10⁻⁶ cm/s | microsomal CLint at 1 uM [2]: 171 µL/min/mg

CC(C)C[C@H]1C(=O)N[C@H](C(=O)N2CCCCC2)CC(=O)N(C)[C@@H](C)C(=O)N(C)[C@@H](Cc2ccccc2)C(=O)N(C)[C@@H](C)C(=O)N[C@@H]([C@@H](C)O)C(=O)N(C)[C@@H](C)C(=O)N[C@@H](Cc2ccccc2)C(=O)N(C)[C@@H](C)C(=O)N[C@@H](C)C(=O)N(C)[C@@H](C)C(=O)N1C [DP-422] ([NMeA][NMeF][NMeA]T[NMeA]F[NMeA]A[NMeA][NMeL]D-Piperidide; lactam N-11)
Papp at 18 hours, 50 µM [1]: 3.8 ×10⁻⁶ cm/s | microsomal CLint at 1 uM [2]: 26 µL/min/mg

CC[C@H](C)[C@@H]1NC(=O)[C@H](Cc2ccccc2)NC(=O)[C@H]([C@@H](C)O)NC(=O)CCN(C)C(=O)C[C@@H](C(=O)N2CCCCC2)NC(=O)[C@H](Cc2ccccc2)NC(=O)[C@H](Cc2ccccc2)NC(=O)CNC(=O)[C@H](CC(C)C)N(C)C(=O)[C@H](CC(C)C)NC1=O [DP-423] ([NMeβAla]TFIL[NMeL]GFFD-Piperidide; lactam N-10)
Papp at 18 hours, 50 µM [1]: 15 ×10⁻⁶ cm/s | microsomal CLint at 1 uM [2]: 110 µL/min/mg

CC[C@H](C)[C@@H]1NC(=O)[C@H](Cc2ccccc2)NC(=O)[C@H]([C@@H](C)O)NC(=O)[C@H](CC(C)C)NC(=O)CCN(C)C(=O)C[C@@H](C(=O)N2CCCCC2)NC(=O)[C@H](CC(C)C)NC(=O)[C@H](Cc2ccccc2)N(C)C(=O)[C@H](Cc2ccccc2)NC(=O)[C@H](CC(C)C)NC1=O [DP-424] ([NMeβAla]LTFILF[NMeF]LD-Piperidide; lactam N-10)
Papp at 18 hours, 50 µM [1]: 46 ×10⁻⁶ cm/s | microsomal CLint at 1 uM [2]: 135 µL/min/mg

CC[C@H](C)[C@@H]1NC(=O)CCN(C)C(=O)C[C@@H](C(=O)N2CCCCC2)NC(=O)[C@H](Cc2ccccc2)N(C)C(=O)[C@H](CC(C)C)NC(=O)[C@H](CC(C)C)N(C)C(=O)[C@H](CC(C)C)NC(=O)[C@H]([C@@H](C)O)NC(=O)[C@H](Cc2ccccc2)NC(=O)[C@H](C(C)C)N(C)C1=O [DP-425] ([NMeβAla]I[NMeV]FTL[NMeL]L[NMeF]D-Piperidide; lactam N-10)
Papp at 18 hours, 50 µM [1]: 27 ×10⁻⁶ cm/s | microsomal CLint at 1 uM [2]: 150 µL/min/mg

CC(C)C[C@H]1C(=O)N[C@@H](Cc2ccccc2)C(=O)N[C@@H](COC(C)(C)C)C(=O)N(C)[C@@H](CC(C)C)C(=O)N(C)[C@@H](CC(C)C)C(=O)N[C@@H]([C@@H](C)O)C(=O)N[C@H](C(=O)N2CCCCC2)CC(=O)N(C)CCC(=O)N(C)[C@@H](Cc2ccccc2)C(=O)NCC(=O)N1C [DP-426] ([NMeβAla][NMeF]G[NMeL]FS(tBu)[NMeL][NMeL]TD-Piperidide; lactam N-10)
Papp at 18 hours, 50 µM [1]: 36 ×10⁻⁶ cm/s | microsomal CLint at 1 uM [2]: 546 µL/min/mg
